Measurements as given in patent US4656165A, “Aminomethyl penem compounds” (priority 1983, dated 1987).
Values after ≈ are worked out from the molar mass of the structure shown.

Key:
[1] = tested on: Pseudomonas aeruginosa K 799/61; assay: Antibiotic activity in vitro (MIC); format: cell-based; conditions: K799/61, read-out: in vitro MIC
Escherichia coli 16 = assay: Antibiotic activity in vitro (MIC); format: cell-based
Escherichia coli 2018 = assay: Antibiotic activity in vitro (MIC); format: cell-based
[2] = tested on: Haemophilus influenzae NCTC 4560; assay: Antibiotic activity in vitro (MIC); format: cell-based; conditions: NCTC4560
Proteus mirabilis 1219 = assay: Antibiotic activity in vitro (MIC); format: cell-based
[3] = tested on: Staphylococcus aureus 2999i+p+; assay: Antibiotic activity in vitro (MIC); format: cell-based
[4] = tested on: Klebsiella pneumoniae 327; assay: Antibiotic activity in vitro (MIC); format: cell-based
[5] = tested on: Staphylococcus aureus Wood 46; assay: Antibiotic activity in vitro (MIC); format: cell-based; conditions: WOOD46
Proteus rettgeri 856 = assay: Antibiotic activity in vitro (MIC); format: cell-based; conditions: Providencia rettgeri
Serratia marcescens 344 = assay: Antibiotic activity in vitro (MIC); format: cell-based
[6] = tested on: Bacteroides fragilis L 01; assay: Antibiotic activity in vitro (MIC); format: cell-based; conditions: L01
Escherichia coli 205 = assay: Antibiotic activity in vitro (MIC); format: cell-based
Proteus mirabilis 774 = assay: Antibiotic activity in vitro (MIC); format: cell-based
[7] = tested on: Staphylococcus aureus A 124; assay: Antibiotic activity in vitro (MIC); format: cell-based; conditions: A124
[8] = tested on: Neisseria meningitidis 1316; assay: Antibiotic activity in vitro (MIC); format: cell-based
[9] = tested on: Pseudomonas aeruginosa 143738R; assay: Antibiotic activity in vitro (MIC); format: cell-based
[10] = tested on: Streptococcus pyogenes Aronson 1129; assay: Antibiotic activity in vitro (MIC); format: cell-based; conditions: ARONSON1129
[11] = tested on: Neisseria gonorrhoeae 1317/4; assay: Antibiotic activity in vitro (MIC); format: cell-based
[12] = tested on: Enterobacter cloacae ATCC 13047; assay: Antibiotic activity in vitro (MIC); format: cell-based; conditions: ATCC13047
Proteus morganii 2359 = assay: Antibiotic activity in vitro (MIC); format: cell-based; conditions: Morganella morganii
[13] = tested on: Streptococcus pneumoniae III/84; assay: Antibiotic activity in vitro (MIC); format: cell-based
Escherichia coli DC 2 = assay: Antibiotic activity in vitro (MIC); format: cell-based; conditions: DC2
[14] = tested on: Enterobacter cloacae P 99; assay: Antibiotic activity in vitro (MIC); format: cell-based; conditions: P99, read-out: in vitro MIC
Escherichia coli UB 1005 = assay: Antibiotic activity in vitro (MIC); format: cell-based; conditions: UB1005
[15] = tested on: Staphylococcus aureus 10 B; assay: Antibiotic activity in vitro (MIC); format: cell-based
[16] = tested on: Pseudomonas aeruginosa ATCC 12055; assay: Antibiotic activity in vitro (MIC); format: cell-based; conditions: ATCC12055
Escherichia coli B-1385 = assay: Antibiotic activity in vitro (MIC); format: cell-based; conditions: B1385
Clostridium perfringens = assay: microbe, parasite or virus in culture; format: cell-based; conditions: read-out: in vitro MIC
[17] = biological target: T1, dehydropeptidase from human kidneys (Homo sapiens, UniProt P16444); assay: Stability towards the enzyme dehydropeptidase from human kidneys; format: in vitro ADME; conditions: for half-life period under the action of renal dehydropeptidase compared with compound B: comparison with the racemate compound B, in words; for half-life: renal dehydropeptidase, enzyme dehydropeptidase from human kidneys, read-out: t1/2 (half-life period), stability towards dehydropeptidase (converted)
T1 construct: dehydropeptidase from human kidneys; from tissue; host or cells: human kidneys
T1 sequence (P16444 17-411): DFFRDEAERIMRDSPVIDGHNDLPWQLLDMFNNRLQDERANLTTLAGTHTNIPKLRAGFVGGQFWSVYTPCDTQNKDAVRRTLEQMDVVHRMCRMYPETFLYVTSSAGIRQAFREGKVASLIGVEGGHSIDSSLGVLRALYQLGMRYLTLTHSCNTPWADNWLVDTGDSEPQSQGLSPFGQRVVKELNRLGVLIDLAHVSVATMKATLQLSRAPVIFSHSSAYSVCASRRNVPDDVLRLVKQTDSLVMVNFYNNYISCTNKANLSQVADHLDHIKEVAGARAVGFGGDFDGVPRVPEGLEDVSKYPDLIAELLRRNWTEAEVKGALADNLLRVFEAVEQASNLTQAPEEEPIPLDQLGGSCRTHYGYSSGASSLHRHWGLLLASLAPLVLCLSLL
From the text: The stability of compounds A, B and C towards the enzyme dehydropeptidase from human kidneys is as follows (expressed in half-life periods t1/2): […]

Proteus morganii 1518 = assay: Antibiotic activity in vitro (MIC); format: cell-based; conditions: Morganella morganii
[18] = tested on: Escherichia coli 205 R + TEM; assay: Antibiotic activity in vitro (MIC); format: cell-based; conditions: read-out: in vitro MIC

SMILES	MIC [1]	MIC (Escherichia coli 16)	MIC (Escherichia coli 2018)	MIC [2]	MIC (Proteus mirabilis 1219)	MIC [3]	MIC [4]	MIC [5]	MIC (Proteus rettgeri 856)	MIC (Serratia marcescens 344)	MIC [6]	MIC (Escherichia coli 205)	MIC (Proteus mirabilis 774)	MIC [7]	MIC [8]	MIC [9]	MIC [10]	MIC [11]	MIC [12]	MIC (Proteus morganii 2359)	further results
NCC1=C(C(=O)O)N2C(=O)[C@H](CO)[C@H]2S1 [compound C, (5R,6S)-2-aminomethyl-6-hydroxymethyl-2-penem-3-carboxylic acid]	0.5 µg/mL (≈ 2.17 µM)	2 µg/mL (≈ 8.69 µM)	1 µg/mL (≈ 4.34 µM)	1 µg/mL (≈ 4.34 µM)	4 µg/mL (≈ 17.4 µM)	0.5 µg/mL (≈ 2.17 µM)	1 µg/mL (≈ 4.34 µM)	0.2 µg/mL (≈ 0.869 µM)	0.5 µg/mL (≈ 2.17 µM)	2 µg/mL (≈ 8.69 µM)	2 µg/mL (≈ 8.69 µM)	1 µg/mL (≈ 4.34 µM)	1 µg/mL (≈ 4.34 µM)	1 µg/mL (≈ 4.34 µM)	1 µg/mL (≈ 4.34 µM)	2 µg/mL (≈ 8.69 µM)	2 µg/mL (≈ 8.69 µM)	1 µg/mL (≈ 4.34 µM)	4 µg/mL (≈ 17.4 µM)	1 µg/mL (≈ 4.34 µM)	MIC [13]: 0.5 µg/mL (≈ 2.17 µM); MIC (Escherichia coli DC 2): 4 µg/mL (≈ 17.4 µM); MIC [14]: 4 µg/mL (≈ 17.4 µM); MIC (Escherichia coli UB 1005): 2 µg/mL (≈ 8.69 µM); MIC [15]: 0.2 µg/mL (≈ 0.869 µM); MIC [16]: 0.2 µg/mL (≈ 0.869 µM); MIC (Escherichia coli B-1385): 2 µg/mL (≈ 8.69 µM); MIC (Clostridium perfringens): 32 µg/mL (≈ 139 µM); half-life period under the action of renal dehydropeptidase compared with compound B [17]: considerably greater half-life period; half-life [17]: 5.5 h; MIC (Proteus morganii 1518): 2 µg/mL (≈ 8.69 µM); MIC [18]: 2 µg/mL (≈ 8.69 µM)
C[C@@H](O)[C@H]1C(=O)N2C(C(=O)O)=C(CN)S[C@H]12 [compound A, (5R,6S)-2-aminomethyl-6-[(1'R)-1-hydroxyethyl]-2-penem-3-carboxylic acid]	0.1 µg/mL (≈ 0.409 µM)	4 µg/mL (≈ 16.4 µM)	2 µg/mL (≈ 8.19 µM)	1 µg/mL (≈ 4.09 µM)	2 µg/mL (≈ 8.19 µM)	0.05 µg/mL (≈ 0.205 µM)	2 µg/mL (≈ 8.19 µM)	0.05 µg/mL (≈ 0.205 µM)	0.5 µg/mL (≈ 2.05 µM)	4 µg/mL (≈ 16.4 µM)	0.5 µg/mL (≈ 2.05 µM)	2 µg/mL (≈ 8.19 µM)	1 µg/mL (≈ 4.09 µM)	0.1 µg/mL (≈ 0.409 µM)	0.5 µg/mL (≈ 2.05 µM)	0.5 µg/mL (≈ 2.05 µM)	0.2 µg/mL (≈ 0.819 µM)	0.5 µg/mL (≈ 2.05 µM)	4 µg/mL (≈ 16.4 µM)	0.5 µg/mL (≈ 2.05 µM)	MIC [13]: 0.1 µg/mL (≈ 0.409 µM); MIC (Escherichia coli DC 2): 8 µg/mL (≈ 32.8 µM); MIC [14]: 4 µg/mL (≈ 16.4 µM); MIC (Escherichia coli UB 1005): 4 µg/mL (≈ 16.4 µM); MIC [15]: 0.05 µg/mL (≈ 0.205 µM); MIC [16]: 0.05 µg/mL (≈ 0.205 µM); MIC (Escherichia coli B-1385): 4 µg/mL (≈ 16.4 µM); MIC (Clostridium perfringens): 2 µg/mL (≈ 8.19 µM); half-life period under the action of renal dehydropeptidase compared with compound B [17]: considerably greater half-life period; MIC (Proteus morganii 1518): 2 µg/mL (≈ 8.19 µM); MIC [18]: 4 µg/mL (≈ 16.4 µM)
C[C@@H](O)[C@H]1C(=O)N2C(C(=O)O)=C(CN)S[C@H]12 (relative stereo) [compound B, (1'R,5R,6S+1'S,5S,6R)-2-aminomethyl-6-(1'hydroxyethyl) -2-penem-3-carboxylic acid, reference compound]	0.2 µg/mL (≈ 0.819 µM)	8 µg/mL (≈ 32.8 µM)	4 µg/mL (≈ 16.4 µM)	2 µg/mL (≈ 8.19 µM)	8 µg/mL (≈ 32.8 µM)	0.2 µg/mL (≈ 0.819 µM)	4 µg/mL (≈ 16.4 µM)	0.1 µg/mL (≈ 0.409 µM)	1 µg/mL (≈ 4.09 µM)	8 µg/mL (≈ 32.8 µM)	1 µg/mL (≈ 4.09 µM)	8 µg/mL (≈ 32.8 µM)	4 µg/mL (≈ 16.4 µM)	0.2 µg/mL (≈ 0.819 µM)	1 µg/mL (≈ 4.09 µM)	2 µg/mL (≈ 8.19 µM)	0.5 µg/mL (≈ 2.05 µM)	1 µg/mL (≈ 4.09 µM)	16 µg/mL (≈ 65.5 µM)	2 µg/mL (≈ 8.19 µM)	MIC [13]: 0.2 µg/mL (≈ 0.819 µM); MIC (Escherichia coli DC 2): 16 µg/mL (≈ 65.5 µM); MIC [14]: 8 µg/mL (≈ 32.8 µM); MIC (Escherichia coli UB 1005): 16 µg/mL (≈ 65.5 µM); MIC [15]: 0.1 µg/mL (≈ 0.409 µM); MIC [16]: 0.1 µg/mL (≈ 0.409 µM); MIC (Escherichia coli B-1385): 8 µg/mL (≈ 32.8 µM); MIC (Clostridium perfringens): 4 µg/mL (≈ 16.4 µM); half-life [17]: 2.2 h; MIC (Proteus morganii 1518): 4 µg/mL (≈ 16.4 µM); MIC [18]: 8 µg/mL (≈ 32.8 µM)
